The values below come from patent US4226863A, “7-Methoxy cephalosporins” (Sumitomo Chemical Company, Limited, priority 1975, dated 1980).

Type in all cases: cell-based
For one test, the system named is Proteus vulgaris HX 19. The test can be described thus: antimicrobial activity, minimum inhibitory concentration, Proteus vulgaris HX 19. As to conditions: HX19. How it is done:
(§1) The antimicrobial activities of the compounds prepared in the previous Examples were determined in a usual manner and the minimum inhibitory concentrations (in terms of μg/ml) are set forth in the Table below.

For test [1], the system named is Enterobacter aerogenes No. 101. The test is described as follows: antimicrobial activity, minimum inhibitory concentration, Enterobacter aerogenes No. 101. As to conditions: Klebsiella aerogenes. Here is the method:
as §1

Another test relates to Serratia No. 115. The test can be described thus: antimicrobial activity, minimum inhibitory concentration, Serratia No. 115. How it is done:
as §1

The subject of a further test is Escherichia coli NIHJ. The test can be described thus: antimicrobial activity, minimum inhibitory concentration, Escherichia coli NIHJ.
For test [2], the system named is Pseudomonas aeruginosa IID 5142. The test can be described thus: antimicrobial activity, minimum inhibitory concentration, Pseudomonas aeruginosa IID 5142. As to conditions: IID5142. How it is done: as §1

≈ marks a conversion by molar mass, not a printed value.

What is called MIC is the least concentration at which growth counts as inhibited. Low values mean inhibition by little substance, high ones a need for much substance.

Take `CO[C@@]1(NC(=O)[C@H](NC(=O)c2cnc3cccnc3c2O)c2ccc(O)cc2)C(=O)N2C(C(=O)O)=C(CSc3nnnn3C)CS[C@@H]21` [Example 2, 3-[(1-Methyltetrazol-5-yl)thiomethyl]-7α-methoxy-7β-[D-2-(4-hydroxy-1,5-naphthyridine-3-carbonamido)-2-(p-hydroxyphenyl)acetamido]-3-cephem-4-carboxylic Acid]: the minimal inhibitory concentration (MIC) against Proteus vulgaris HX 19 worked out at 0.2 µg/mL (≈ 0.294 µM); in test [1] it was 3.13 µg/mL (≈ 4.6 µM); against Serratia No. 115 it was 3.13 µg/mL (≈ 4.6 µM); in the test on Escherichia coli NIHJ, 0.78 µg/mL (≈ 1.15 µM); in test [2] it was 1.56 µg/mL (≈ 2.3 µM).

On to `COC1(NC(=O)C(NC(=O)c2nnc(O)nc2O)c2ccc(O)cc2)C(=O)N2C(C(=O)O)=C(COC(N)=O)CSC21` (stereo not shown) [Example 52], for which the MIC in the test on Proteus vulgaris HX 19 was found to be 1.56 µg/mL (≈ 2.64 µM); in test [1], 50 µg/mL (≈ 84.5 µM); in the test with Serratia No. 115, 100 µg/mL (≈ 169 µM); in the test with Escherichia coli NIHJ it was 25 µg/mL (≈ 42.3 µM); in test [2] it was 25 µg/mL (≈ 42.3 µM).

Turning to `CO[C@@]1(NC(=O)C(NC(=O)c2cnc3cncnc3c2O)c2ccccc2)C(=O)N2C(C(=O)O)=C(CSc3nnnn3C)CS[C@@H]21` (stereo partly shown) [Example 7], the MIC against Proteus vulgaris HX 19 stood at 0.78 µg/mL (≈ 1.17 µM); in test [1], 6.25 µg/mL (≈ 9.4 µM); against Serratia No. 115, 12.5 µg/mL (≈ 18.8 µM); in the test on Escherichia coli NIHJ it was 6.25 µg/mL (≈ 9.4 µM); in test [2], 6.25 µg/mL (≈ 9.4 µM).

Regarding `COC1(NC(=O)C(NC(=O)c2cnc3cn[nH]c3c2O)c2ccc(O)cc2)C(=O)N2C(C(=O)O)=C(CSc3nnnn3C)CSC21` (stereo not shown) [Example 46], the minimum inhibitory concentration (MIC) against Proteus vulgaris HX 19 came to 0.39 µg/mL (≈ 0.583 µM); in test [1], 6.25 µg/mL (≈ 9.35 µM); in the test on Serratia No. 115, 6.25 µg/mL (≈ 9.35 µM); in the test on Escherichia coli NIHJ, 1.56 µg/mL (≈ 2.33 µM); in test [2], 6.25 µg/mL (≈ 9.35 µM).

Take `COC1(NC(=O)C(NC(=O)c2cc3ncccc3nc2O)c2ccc(O)cc2)C(=O)N2C(C(=O)O)=C(CSc3nnnn3C)CSC21` (stereo not shown) [Example 28]: the MIC in the test with Proteus vulgaris HX 19 was determined as 0.39 µg/mL (≈ 0.574 µM); in test [1], 6.25 µg/mL (≈ 9.2 µM); against Serratia No. 115, 6.25 µg/mL (≈ 9.2 µM); in the test with Escherichia coli NIHJ it was 1.56 µg/mL (≈ 2.3 µM); in test [2] it was 3.13 µg/mL (≈ 4.6 µM).

Regarding `CO[C@@]1(NC(=O)C(NC(=O)c2ccnnc2O)c2ccc(O)cc2)C(=O)N2C(C(=O)O)=C(CSc3nnnn3C)CS[C@@H]21` (stereo partly shown) [Example 12], the minimal inhibitory concentration (MIC) was 0.78 µg/mL (≈ 1.24 µM) in the test on Proteus vulgaris HX 19; 25 µg/mL (≈ 39.7 µM) in test [1]; 100 µg/mL (≈ 159 µM) in the test with Serratia No. 115; 12.5 µg/mL (≈ 19.9 µM) with Escherichia coli NIHJ; 25 µg/mL (≈ 39.7 µM) in test [2].

As for `COC1(NC(=O)C(NC(=O)c2cnc3cncnc3c2O)c2ccc(O)cc2)C(=O)N2C(C(=O)[O-])=C(C[n+]3ccc(C(N)=O)cc3)CSC21` (stereo not shown) [Example 37], the MIC in the test on Proteus vulgaris HX 19 stood at 0.78 µg/mL (≈ 1.14 µM); in test [1], 6.25 µg/mL (≈ 9.1 µM); in the test on Serratia No. 115, 50 µg/mL (≈ 72.8 µM); in the test on Escherichia coli NIHJ, 6.25 µg/mL (≈ 9.1 µM); in test [2], 12.5 µg/mL (≈ 18.2 µM).

For `COc1cc(C(NC(=O)c2cnc3cccnc3c2O)C(=O)NC2(OC)C(=O)N3C(C(=O)O)=C(COC(N)=O)CSC32)ccc1O` (stereo not shown) [Example 39], the MIC against Proteus vulgaris HX 19 amounted to 0.78 µg/mL (≈ 1.19 µM); in test [1], 12.5 µg/mL (≈ 19.1 µM); against Serratia No. 115, 50 µg/mL (≈ 76.4 µM); in the test with Escherichia coli NIHJ, 3.13 µg/mL (≈ 4.78 µM); in test [2], 3.13 µg/mL (≈ 4.78 µM).

Take `CO[C@@]1(NC(=O)[C@H](NC(=O)c2cnc3cccnc3c2O)c2ccccc2)C(=O)N2C(C(=O)[O-])=C(C[n+]3ccccc3)CS[C@@H]21` [Example 4, 3-Pyridiniummethyl-7α-methoxy-7β-[D-2-(4-hydroxy-1,5-naphthyridine-3-carbonamido)-2-phenylacetamido]-3-cephem-4-carboxylate]: the MIC against Proteus vulgaris HX 19 stood at 0.78 µg/mL (≈ 1.24 µM); in test [1] it was 12.5 µg/mL (≈ 19.9 µM); in the test on Serratia No. 115, 25 µg/mL (≈ 39.9 µM); against Escherichia coli NIHJ it was 3.13 µg/mL (≈ 4.99 µM); in test [2], 6.25 µg/mL (≈ 9.97 µM).

With `COC1(NC(=O)C(NC(=O)c2cnc3scnc3c2O)c2ccc(O)cc2)C(=O)N2C(C(=O)O)=C(COC(N)=O)CSC21` (stereo not shown) [Example 30], the MIC against Proteus vulgaris HX 19 amounted to 0.39 µg/mL (≈ 0.618 µM); in test [1], 12.5 µg/mL (≈ 19.8 µM); in the test on Serratia No. 115, 12.5 µg/mL (≈ 19.8 µM); in the test on Escherichia coli NIHJ it was 6.25 µg/mL (≈ 9.91 µM); in test [2], 6.25 µg/mL (≈ 9.91 µM).

As for `CNc1nnc(SCC2=C(C(=O)O)N3C(=O)[C@](NC(=O)C(NC(=O)c4cnc5ccc(OC)nc5c4O)c4ccc(O)c(Cl)c4)(OC)[C@H]3SC2)s1` (stereo partly shown) [Example 21], the MIC against Proteus vulgaris HX 19 was 0.39 µg/mL (≈ 0.503 µM); in test [1], 6.25 µg/mL (≈ 8.06 µM); in the test on Serratia No. 115, 12.5 µg/mL (≈ 16.1 µM); with Escherichia coli NIHJ it was 1.56 µg/mL (≈ 2.01 µM); in test [2], 3.13 µg/mL (≈ 4.04 µM).

Regarding `COC1(NC(=O)C(NC(=O)c2cnc3ccncc3c2O)c2ccc(O)cc2)C(=O)N2C(C(=O)O)=C(CSc3nnnn3C)CSC21` (stereo not shown) [Example 38], the minimum inhibitory concentration (MIC) turned out to be 0.78 µg/mL (≈ 1.15 µM) in the test on Proteus vulgaris HX 19; 12.5 µg/mL (≈ 18.4 µM) in test [1]; 25 µg/mL (≈ 36.8 µM) against Serratia No. 115; 12.5 µg/mL (≈ 18.4 µM) against Escherichia coli NIHJ; 12.5 µg/mL (≈ 18.4 µM) in test [2].

Take `CO[C@@]1(NC(=O)C(NC(=O)c2cnc3nc(SC)ncc3c2O)c2ccc(O)cc2)C(=O)N2C(C(=O)O)=C(CSc3ccc(O)nn3)CS[C@@H]21` (stereo partly shown) [Example 19]: the minimum inhibitory concentration (MIC) came to 0.78 µg/mL (≈ 1.06 µM) with Proteus vulgaris HX 19; 12.5 µg/mL (≈ 16.9 µM) in test [1]; 25 µg/mL (≈ 33.8 µM) in the test with Serratia No. 115; 6.25 µg/mL (≈ 8.46 µM) against Escherichia coli NIHJ; 3.13 µg/mL (≈ 4.24 µM) in test [2].

In the case of `CO[C@@]1(NC(=O)C(NC(=O)c2cnccc2O)c2ccccc2)C(=O)N2C(C(=O)[O-])=C(C[n+]3ccccc3)CS[C@@H]21` (stereo partly shown) [Example 16], the MIC against Proteus vulgaris HX 19 was determined as 1.56 µg/mL (≈ 2.71 µM); in test [1], 25 µg/mL (≈ 43.4 µM); against Serratia No. 115, 50 µg/mL (≈ 86.9 µM); in the test with Escherichia coli NIHJ, 12.5 µg/mL (≈ 21.7 µM); in test [2], 6.25 µg/mL (≈ 10.9 µM).

As for `CO[C@@]1(NC(=O)C(NC(=O)c2cnc3nc(N4CCCC4)cnc3c2O)c2ccc(O)cc2)C(=O)N2C(C(=O)O)=C(CSc3n[nH]c(=S)s3)CS[C@@H]21` (stereo partly shown) [Example 26], the minimum inhibitory concentration (MIC) against Proteus vulgaris HX 19 is 0.39 µg/mL (≈ 0.498 µM); in test [1], 12.5 µg/mL (≈ 15.9 µM); against Serratia No. 115, 12.5 µg/mL (≈ 15.9 µM); in the test on Escherichia coli NIHJ it was 6.25 µg/mL (≈ 7.97 µM); in test [2], 6.25 µg/mL (≈ 7.97 µM).

Take `CO[C@@]1(NC(=O)C(NC(=O)c2ccnnc2O)c2ccc(O)cc2)C(=O)N2C(C(=O)O)=C(CSc3n[nH]c(=S)s3)CS[C@@H]21` (stereo partly shown) [Example 14]: the minimal inhibitory concentration (MIC) was determined as 1.56 µg/mL (≈ 2.35 µM) with Proteus vulgaris HX 19; 25 µg/mL (≈ 37.7 µM) in test [1]; 100 µg/mL (≈ 151 µM) in the test with Serratia No. 115; 12.5 µg/mL (≈ 18.8 µM) in the test on Escherichia coli NIHJ; 25 µg/mL (≈ 37.7 µM) in test [2].

For the molecule `COC1(NC(=O)C(NC(=O)c2cnccc2O)c2ccc(O)c(O)c2)C(=O)N2C(C(=O)O)=C(COC(N)=O)CSC21` (stereo not shown) [Example 44], the minimal inhibitory concentration (MIC) against Proteus vulgaris HX 19 came to 0.78 µg/mL (≈ 1.32 µM); in test [1], 50 µg/mL (≈ 84.8 µM); in the test with Serratia No. 115, 100 µg/mL (≈ 170 µM); in the test on Escherichia coli NIHJ, 12.5 µg/mL (≈ 21.2 µM); in test [2], 12.5 µg/mL (≈ 21.2 µM).

With `COC1(NC(=O)C(NC(=O)c2cnccc2O)c2cccs2)C(=O)N2C(C(=O)O)=C(CSc3nnnn3C)CSC21` (stereo not shown) [Example 34], the MIC against Proteus vulgaris HX 19 worked out at 0.39 µg/mL (≈ 0.63 µM); in test [1] it was 12.5 µg/mL (≈ 20.2 µM); against Serratia No. 115 it was 50 µg/mL (≈ 80.8 µM); against Escherichia coli NIHJ, 12.5 µg/mL (≈ 20.2 µM); in test [2] it was 6.25 µg/mL (≈ 10.1 µM).

Regarding `CO[C@@]1(NC(=O)[C@H](NC(=O)c2cnc3cccnc3c2O)c2ccccc2)C(=O)N2C(C(=O)O)=C(COC(C)=O)CS[C@@H]21` [Example 1, 3-Acetoxymethyl-7α-methoxy-7β-[D-2-(4-hydroxy-1,5-naphthyridine-3-carbonamido)-2-phenylacetamido]-3-cephem-4-carboxylic Acid], the MIC is 0.39 µg/mL (≈ 0.642 µM) in the test on Proteus vulgaris HX 19; 6.25 µg/mL (≈ 10.3 µM) in test [1]; 50 µg/mL (≈ 82.3 µM) against Serratia No. 115; 3.13 µg/mL (≈ 5.15 µM) in the test on Escherichia coli NIHJ; 1.56 µg/mL (≈ 2.57 µM) in test [2].

Consider `COC1(NC(=O)C(NC(=O)c2cnc3cccnc3c2O)C2=CCCCC2)C(=O)N2C(C(=O)O)=C(COC(C)=O)CSC21` (stereo not shown) [Example 36], for which the MIC was 0.39 µg/mL (≈ 0.638 µM) against Proteus vulgaris HX 19; 12.5 µg/mL (≈ 20.4 µM) in test [1]; 50 µg/mL (≈ 81.7 µM) in the test with Serratia No. 115; 3.13 µg/mL (≈ 5.12 µM) against Escherichia coli NIHJ; 3.13 µg/mL (≈ 5.12 µM) in test [2].
